# Data published in patent US20240024488A1, “COMPOUNDS AND USES THEREOF” (Foghorn Therapeutics Inc., priority 2020, published 2024).
# Columns and labels:
# [1] = target: T1, HiBit-BRG1 fusion protein (Homo sapiens, UniProt P51532); assay: HiBiT-BRG1 cell-based degradation assay (Nano-Glo HiBiT Lytic Detection, 24 h); conditions: HeLa cell line expressing HiBit-BRG1 and LgBit; for Dmax: read-out: BRG1 HiBit Degradation Maximum (%); for DC50: read-out: BRMG1 HiBit Degradation IC50
# T1 construct: expressed in transfected cells
# Summary of the method: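 Stable HeLa line co-expressing HiBit-BRG1 and LgBit, 5000 cells/well, treated 24 h in a tissue culture incubator. Lysed with Nano-Glo HiBiT lytic reagent, luminescence read. % degradation normalized to DMSO (high control) and 2 μM reference BRM/BRG1 degrader (low control).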
# HiBit-BRM fusion protein = target: T2, HiBit-BRM fusion protein (Homo sapiens, UniProt P51531); assay: HiBiT-BRM cell-based degradation assay (Nano-Glo HiBiT Lytic Detection, 24 h); conditions: HeLa cell line expressing HiBiT-BRM; for DC50: read-out: BRM HiBit Degradation IC50
# T2 construct: expressed in transfected cells
# Summary of the method: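 HeLa cells stably expressing HiBiT-BRM were dosed with compounds (10-point 3-fold dilutions, 30 μM final top dose, duplicate) for 24 h. HiBiT signal was read by lytic LgBiT complementation luminescence. Percent degradation was normalised to DMSO (high control) and 2 μM of a reference BRM/BRG1 degrader (low control).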
# T2 sequence (P51531 whole entry, the tested form may be a part): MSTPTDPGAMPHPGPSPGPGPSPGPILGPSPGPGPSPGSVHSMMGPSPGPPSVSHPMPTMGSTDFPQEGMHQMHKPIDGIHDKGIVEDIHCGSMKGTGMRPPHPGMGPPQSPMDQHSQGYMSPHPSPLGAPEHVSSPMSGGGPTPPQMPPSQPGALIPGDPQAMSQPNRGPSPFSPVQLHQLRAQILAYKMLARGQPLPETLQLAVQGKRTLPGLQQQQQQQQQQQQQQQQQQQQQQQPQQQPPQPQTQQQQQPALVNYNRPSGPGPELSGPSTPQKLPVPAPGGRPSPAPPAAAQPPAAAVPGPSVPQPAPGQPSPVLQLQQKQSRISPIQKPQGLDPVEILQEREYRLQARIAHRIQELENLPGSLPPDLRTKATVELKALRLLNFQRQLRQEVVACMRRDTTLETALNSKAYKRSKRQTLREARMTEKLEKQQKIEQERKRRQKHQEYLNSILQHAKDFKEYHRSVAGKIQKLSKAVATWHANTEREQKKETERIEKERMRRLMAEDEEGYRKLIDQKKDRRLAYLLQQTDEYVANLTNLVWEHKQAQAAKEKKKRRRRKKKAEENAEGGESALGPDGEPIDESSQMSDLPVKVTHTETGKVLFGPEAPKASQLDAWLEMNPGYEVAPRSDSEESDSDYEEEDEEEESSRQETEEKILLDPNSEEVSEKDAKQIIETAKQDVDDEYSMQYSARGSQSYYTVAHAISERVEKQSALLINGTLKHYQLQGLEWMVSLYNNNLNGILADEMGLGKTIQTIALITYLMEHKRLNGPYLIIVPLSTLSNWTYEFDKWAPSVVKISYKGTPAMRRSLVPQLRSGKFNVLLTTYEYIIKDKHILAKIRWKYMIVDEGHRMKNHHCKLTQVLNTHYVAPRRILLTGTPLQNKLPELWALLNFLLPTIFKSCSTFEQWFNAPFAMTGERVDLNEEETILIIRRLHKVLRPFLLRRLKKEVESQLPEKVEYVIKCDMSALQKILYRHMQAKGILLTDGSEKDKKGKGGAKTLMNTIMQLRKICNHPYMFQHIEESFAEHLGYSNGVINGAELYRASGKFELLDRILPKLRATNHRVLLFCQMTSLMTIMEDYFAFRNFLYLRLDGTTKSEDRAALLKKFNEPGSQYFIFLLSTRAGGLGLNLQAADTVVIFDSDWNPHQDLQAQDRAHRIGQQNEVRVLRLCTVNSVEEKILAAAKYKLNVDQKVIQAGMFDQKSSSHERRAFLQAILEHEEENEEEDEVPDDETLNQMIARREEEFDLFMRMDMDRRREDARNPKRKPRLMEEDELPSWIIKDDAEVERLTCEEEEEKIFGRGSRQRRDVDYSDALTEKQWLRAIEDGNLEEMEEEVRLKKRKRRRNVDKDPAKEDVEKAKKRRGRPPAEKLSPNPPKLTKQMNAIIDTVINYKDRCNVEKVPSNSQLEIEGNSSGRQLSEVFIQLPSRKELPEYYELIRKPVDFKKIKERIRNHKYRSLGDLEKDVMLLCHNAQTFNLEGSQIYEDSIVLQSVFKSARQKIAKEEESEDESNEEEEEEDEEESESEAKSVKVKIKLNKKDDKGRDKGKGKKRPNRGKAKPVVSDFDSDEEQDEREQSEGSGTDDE
# T1 sequence (P51532 whole entry, the tested form may be a part): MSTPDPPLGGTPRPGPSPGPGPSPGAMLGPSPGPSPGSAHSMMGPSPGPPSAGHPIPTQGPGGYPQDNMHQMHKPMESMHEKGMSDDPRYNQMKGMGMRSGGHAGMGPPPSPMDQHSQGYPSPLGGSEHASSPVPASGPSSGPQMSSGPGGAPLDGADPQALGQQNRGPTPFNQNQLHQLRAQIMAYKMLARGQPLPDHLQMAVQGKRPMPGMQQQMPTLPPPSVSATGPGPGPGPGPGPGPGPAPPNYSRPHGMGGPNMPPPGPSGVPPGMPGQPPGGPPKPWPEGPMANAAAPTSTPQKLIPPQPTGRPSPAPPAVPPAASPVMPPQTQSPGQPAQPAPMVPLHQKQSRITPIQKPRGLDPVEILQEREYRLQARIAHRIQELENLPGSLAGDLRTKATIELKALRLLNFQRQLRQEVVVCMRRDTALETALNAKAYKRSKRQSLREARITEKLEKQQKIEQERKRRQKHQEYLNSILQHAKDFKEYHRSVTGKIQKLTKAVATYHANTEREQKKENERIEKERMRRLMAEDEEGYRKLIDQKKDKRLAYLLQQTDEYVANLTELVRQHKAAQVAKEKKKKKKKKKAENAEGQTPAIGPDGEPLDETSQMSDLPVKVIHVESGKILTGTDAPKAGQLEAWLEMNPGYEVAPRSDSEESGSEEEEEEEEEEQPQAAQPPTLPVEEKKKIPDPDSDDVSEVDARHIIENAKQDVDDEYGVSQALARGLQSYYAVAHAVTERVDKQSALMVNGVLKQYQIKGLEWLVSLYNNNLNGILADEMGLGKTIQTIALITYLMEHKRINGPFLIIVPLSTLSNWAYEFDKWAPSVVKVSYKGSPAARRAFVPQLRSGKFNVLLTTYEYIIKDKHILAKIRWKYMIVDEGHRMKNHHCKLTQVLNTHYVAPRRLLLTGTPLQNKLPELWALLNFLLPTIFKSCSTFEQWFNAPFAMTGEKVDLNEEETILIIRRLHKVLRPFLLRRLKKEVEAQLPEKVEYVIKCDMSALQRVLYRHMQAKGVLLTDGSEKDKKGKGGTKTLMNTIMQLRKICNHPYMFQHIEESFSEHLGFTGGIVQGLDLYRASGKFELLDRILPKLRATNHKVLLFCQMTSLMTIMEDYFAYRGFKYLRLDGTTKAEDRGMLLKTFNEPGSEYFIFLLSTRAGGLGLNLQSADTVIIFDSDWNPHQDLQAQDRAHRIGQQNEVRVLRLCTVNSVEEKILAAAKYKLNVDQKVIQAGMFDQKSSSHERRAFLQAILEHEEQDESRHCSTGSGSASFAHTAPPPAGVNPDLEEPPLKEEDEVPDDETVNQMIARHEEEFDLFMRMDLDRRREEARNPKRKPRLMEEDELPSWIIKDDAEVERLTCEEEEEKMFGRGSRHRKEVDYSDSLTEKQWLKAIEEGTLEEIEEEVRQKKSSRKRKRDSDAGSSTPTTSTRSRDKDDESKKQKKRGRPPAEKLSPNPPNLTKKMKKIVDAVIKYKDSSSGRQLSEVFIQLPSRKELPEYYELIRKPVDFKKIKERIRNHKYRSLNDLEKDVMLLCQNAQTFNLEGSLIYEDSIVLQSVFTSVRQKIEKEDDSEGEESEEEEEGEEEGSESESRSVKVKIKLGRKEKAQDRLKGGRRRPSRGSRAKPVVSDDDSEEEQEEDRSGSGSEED
Dmax [1],DC50 [1],DC50 (HiBit-BRM fusion protein),Structure (SMILES),BRM HiBit Degradation Maximum (%) (HiBit-BRM fusion protein)
> 50%,> 0.1 µM,> 0.01 µM,"Cc1ncsc1-c1ccc([C@H](C)NC(=O)[C@@H]2C[C@@H](O)CN2C(=O)[C@@H](c2cc(N3CCC(CN4CC5(Cc6cc(-c7ccccc7O)nnc6N5)C4)CC3)no2)C(C)C)cc1 (racemic) [Compound 96, (2S,4R)-4-hydroxy-1-((R)-2-(3-(4-((3′-(2-hydroxyphenyl)-5′,7′-dihydrospiro[azetidine-3,6′-pyrrolo[2,3-c]pyridazin]-1-yl)methyl)piperidin-1-yl)isoxazol-5-yl)-3-methylbutanoyl)-N-((S)-1-(4-(4-methylthiazol-5-yl)phenyl)ethyl)pyrrolidine-2-carboxamide]",A (“A” indicates maximum degradation ≥ 75%)
< 50%,–,> 0.1 µM,"Cc1ncsc1-c1ccc([C@H](C)NC(=O)[C@@H]2C[C@@H](O)CN2C(=O)[C@@H](c2cc(N3CCC(C(=O)N4CC5(Cc6cc(-c7ccccc7O)nnc6N5)C4)CC3)no2)C(C)C)cc1 (racemic) [Compound 97, (2S,4R)-4-hydroxy-1-((R)-2-(3-(4-(3′-(2-hydroxyphenyl)-5′,7′-dihydrospiro[azetidine-3,6′-pyrrolo[2,3-c]pyridazine]-1-carbonyl)piperidin-1-yl)isoxazol-5-yl)-3-methylbutanoyl)-N-((S)-1-(4-(4-methylthiazol-5-yl)phenyl)ethyl)pyrrolidine-2-carboxamide]",A (“A” indicates maximum degradation ≥ 75%)
< 50%,–,> 0.01 µM,"Cc1ncsc1-c1ccc([C@H](C)NC(=O)[C@@H]2C[C@@H](O)CN2C(=O)[C@@H](c2cc(N3CCC(N4CC5(Cc6cc(-c7ccccc7O)nnc6N5)C4)CC3)no2)C(C)C)cc1 (racemic) [Compound 98, (2S,4R)-4-hydroxy-1-((R)-2-(3-(4-(3′-(2-hydroxyphenyl)-5′,7′-dihydrospiro[azetidine-3,6′-pyrrolo[2,3-c]pyridazin]-1-yl)piperidin-1-yl)isoxazol-5-yl)-3-methylbutanoyl)-N-((S)-1-(4-(4-methylthiazol-5-yl)phenyl)ethyl)pyrrolidine-2-carboxamide]",A (“A” indicates maximum degradation ≥ 75%)
< 50%,–,> 0.01 µM,"Cc1ncsc1-c1ccc([C@H](C)NC(=O)[C@@H]2C[C@@H](O)CN2C(=O)[C@@H](c2cc(OCCN3C[C@@H]4[C@H](C3)[C@H]4c3cc4cc(-c5cccc(Cl)c5O)nnc4[nH]3)no2)C(C)C)cc1 (racemic) [Compound 110, (2S,4R)-1-((R)-2-(3-(2-((1R,5S,6R)-6-(3-(3-chloro-2-hydroxyphenyl)-7H-pyrrolo[2,3-c]pyridazin-6-yl)-3-azabicyclo[3.1.0]hexan-3-yl)ethoxy)isoxazol-5-yl)-3-methylbutanoyl)-4-hydroxy-N-((S)-1-(4-(4-methylthiazol-5-yl)phenyl)ethyl)pyrrolidine-2-carboxamide]",A (“A” indicates maximum degradation ≥ 75%)
> 50%,> 0.1 µM,> 0.01 µM,"Cc1ncsc1-c1ccc([C@H](C)NC(=O)[C@@H]2C[C@@H](O)CN2C(=O)[C@@H](c2cc(N3CCC(N(C)[C@H]4CCc5[nH]c6nnc(-c7ccccc7O)cc6c5C4)CC3)no2)C(C)C)cc1 (racemic) [Compound 111, (2S,4R)-4-hydroxy-1-((R)-2-(3-(4-(((S)-3-(2-hydroxyphenyl)-6,7,8,9-tetrahydro-5H-pyridazino[3,4-b]indol-6-yl)(methyl)amino)piperidin-1-yl)isoxazol-5-yl)-3-methylbutanoyl)-N-((S)-1-(4-(4-methylthiazol-5-yl)phenyl)ethyl)pyrrolidine-2-carboxamide]",A (“A” indicates maximum degradation ≥ 75%)
< 50%,–,> 0.01 µM,"Cc1ncsc1-c1ccc([C@H](C)NC(=O)[C@@H]2C[C@@H](O)CN2C(=O)[C@@H](c2cc(C3CCN(Cc4cc5cc(-c6ccccc6O)nnc5[nH]4)CC3)no2)C(C)C)cc1 (racemic) [Compound 118, (2S,4R)-4-hydroxy-1-((R)-2-(3-(1-((3-(2-hydroxyphenyl)-7H-pyrrolo[2,3-c]pyridazin-6-yl)methyl)piperidin-4-yl)isoxazol-5-yl)-3-methylbutanoyl)-N-((S)-1-(4-(4-methylthiazol-5-yl)phenyl)ethyl)pyrrolidine-2-carboxamide]",A (“A” indicates maximum degradation ≥ 75%)
< 50%,–,> 0.01 µM,Cc1ncsc1-c1ccc([C@H](C)NC(=O)[C@@H]2C[C@@H](O)CN2C(=O)[C@@H](c2cc(OCCN3CC(c4[nH]c5nnc(-c6ccccc6O)cc5c4Br)C3)no2)C(C)C)cc1 (racemic) [Compound 120],A (“A” indicates maximum degradation ≥ 75%)
< 50%,–,> 0.1 µM,"Cc1ncsc1-c1ccc([C@H](C)NC(=O)[C@@H]2C[C@@H](O)CN2C(=O)[C@@H](c2cc(OCCN3CC(c4[nH]c5nnc(-c6ccccc6O)cc5c4F)C3)no2)C(C)C)cc1 (racemic) [Compound 121, (2S,4R)-1-[(2R)-2-[3-(2-{3-[5-fluoro-3-(2-hydroxyphenyl)-7H-pyrrolo[2,3-c]pyridazin-6-yl]azetidin-1-yl}ethoxy)-1,2-oxazol-5-yl]-3-methylbutanoyl]-4-hydroxy-N-[(1S)-1-[4-(4-methyl-1,3-thiazol-5-yl)phenyl]ethyl]pyrrolidine-2-carboxamide]",A (“A” indicates maximum degradation ≥ 75%)
< 50%,–,> 0.01 µM,"Cc1ncsc1-c1ccc([C@H](C)NC(=O)[C@@H]2C[C@@H](O)CN2C(=O)[C@@H](c2cc(OCCN3C[C@@H]4[C@H](C3)[C@H]4c3[nH]c4nnc(-c5cc(F)cc(F)c5O)cc4c3C)no2)C(C)C)cc1 (racemic) [Compound 125, (2S,4R)-1-((R)-2-(3-(2-((1R,5S,6R)-6-(3-(3,5-difluoro-2-hydroxyphenyl)-5-methyl-7H-pyrrolo[2,3-c]pyridazin-6-yl)-3-azabicyclo[3.1.0]hexan-3-yl)ethoxy)isoxazol-5-yl)-3-methylbutanoyl)-4-hydroxy-N-((S)-1-(4-(4-methylthiazol-5-yl)phenyl)ethyl)pyrrolidine-2-carboxamide]",A (“A” indicates maximum degradation ≥ 75%)
> 50%,> 0.1 µM,> 0.01 µM,"Cc1ncsc1-c1ccc([C@H](C)NC(=O)[C@@H]2C[C@@H](O)CN2C(=O)[C@@H](c2cc(OCCN3C[C@@H]4[C@H](C3)[C@H]4c3[nH]c4nnc(-c5cccc(F)c5O)cc4c3C)no2)C(C)C)cc1 (racemic) [Compound 126, (2S,4R)-1-((R)-2-(3-(2-((1R,5S,6R)-6-(3-(3-fluoro-2-hydroxyphenyl)-5-methyl-7H-pyrrolo[2,3-c]pyridazin-6-yl)-3-azabicyclo[3.1.0]hexan-3-yl)ethoxy)isoxazol-5-yl)-3-methylbutanoyl)-4-hydroxy-N-((S)-1-(4-(4-methylthiazol-5-yl)phenyl)ethyl)pyrrolidine-2-carboxamide]",A (“A” indicates maximum degradation ≥ 75%)
< 50%,–,> 0.01 µM,"Cc1ncsc1-c1ccc([C@H](C)NC(=O)[C@@H]2C[C@@H](O)CN2C(=O)[C@@H](c2cc(OCCN3CC(c4[nH]c5nnc(-c6cccc(F)c6O)cc5c4C)C3)no2)C(C)C)cc1 (racemic) [Compound 127, (2S,4R)-1-((R)-2-(3-(2-(3-(3-(3-fluoro-2-hydroxyphenyl)-5-methyl-7H-pyrrolo[2,3-c]pyridazin-6-yl)azetidin-1-yl)ethoxy)isoxazol-5-yl)-3-methylbutanoyl)-4-hydroxy-N-((S)-1-(4-(4-methylthiazol-5-yl)phenyl)ethyl)pyrrolidine-2-carboxamide]",A (“A” indicates maximum degradation ≥ 75%)
> 75%,> 0.01 µM,< 0.01 µM,"Cc1ncsc1-c1ccc([C@H](C)NC(=O)[C@@H]2C[C@@H](O)CN2C(=O)[C@@H](c2cc(OCCCN3C[C@@H]4[C@H](C3)[C@H]4c3c(C)[nH]c4nnc(-c5ccccc5O)cc34)no2)C(C)C)cc1 (racemic) [Compound 128, (2S,4R)-4-hydroxy-1-((R)-2-(3-(3-((1R,5S,6S)-6-(3-(2-hydroxyphenyl)-6-methyl-7H-pyrrolo[2,3-c]pyridazin-5-yl)-3-azabicyclo[3.1.0]hexan-3-yl)propoxy)isoxazol-5-yl)-3-methylbutanoyl)-N-((S)-1-(4-(4-methylthiazol-5-yl)phenyl)ethyl)pyrrolidine-2-carboxamide]",A (“A” indicates maximum degradation ≥ 75%)

Structure (SMILES),Dmax [1],DC50 [1],DC50 (HiBit-BRM fusion protein),BRM HiBit Degradation Maximum (%) (HiBit-BRM fusion protein)
"Cc1ncsc1-c1ccc([C@H](C)NC(=O)[C@@H]2C[C@@H](O)CN2C(=O)[C@@H](c2cc(N3CCN(C(=O)N4CC(c5cc6cc(-c7ccccc7O)nnc6[nH]5)C4)CC3)no2)C(C)C)cc1 (racemic) [Compound 124, (2S,4R)-4-hydroxy-1-[(2R)-2-[3-(4-{3-[3-(2-hydroxyphenyl)-7H-pyrrolo[2,3-c]pyridazin-6-yl]azetidine-1-carbonyl}piperazin-1-yl)-1,2-oxazol-5-yl]-3-methylbutanoyl]-N-[(1S)-1-[4-(4-methyl-1,3-thiazol-5-yl)phenyl]ethyl]pyrrolidine-2-carboxamide]",–,> 0.1 µM,> 0.01 µM,A (“A” indicates maximum degradation ≥ 75%)
